Assay results published in ChEMBL document CHEMBL3044955, “Inhibitory activity against tobacco mosaic virus (TMV) replication of pinoresinol and syringaresinol lignans and their glycosides from the root of Rhus javanica var. roxburghiana” (J Agric Food Chem, 2007).
Converted amounts (≈) assume the structure as drawn.

How the values were obtained:
Tobacco mosaic virus [1] = experiment: Inhibition of Tobacco mosaic virus (TMV) replication using Nicotiana tabacum cv. K326; format: functional, organism-based
Tobacco mosaic virus [2] = experiment: Inhibition of Tobacco mosaic virus (TMV) replication using Nicotiana tabacum cv. K326 at 0.2 mg/mL; format: functional

EC50 (Tobacco mosaic virus [1]) | Structure (SMILES) | inhibition at 200 µg/mL (Tobacco mosaic virus [2])
240 µg/mL (≈ 275 µM) | COc1cc(/C=C/C(=O)OC[C@H]2O[C@@H](Oc3ccc([C@@H]4OC[C@@H]5[C@H]4CO[C@H]5c4ccc(O)c(OC)c4)cc3OC)[C@H](O)[C@@H](OC(=O)/C=C/c3ccc(O)c(OC)c3)[C@@H]2O)ccc1O [PINORESINOL-4'-O-[3',6'-O-(E)-DIFERULOYL]-BETA-D-GLUCOPYRANOSIDE] | 47.7%
190 µg/mL (≈ 218 µM) | COc1cc(/C=C/C(=O)OC[C@H]2O[C@@H](Oc3ccc([C@@H]4OC[C@@H]5[C@H]4CO[C@H]5c4ccc(O)c(OC)c4)cc3OC)[C@H](O)[C@@H](O)[C@@H]2OC(=O)/C=C/c2ccc(O)c(OC)c2)ccc1O [PINORESINOL-4'-O-[4',6'-O-(E)-DIFERULOYL]-BETA-D-GLUCOPYRANOSIDE] | 50.3%
 | COc1cc(/C=C/C(=O)OC[C@H]2O[C@@H](Oc3ccc([C@@H]4OC[C@@H]5[C@H]4CO[C@H]5c4ccc(O)c(OC)c4)cc3OC)[C@H](O)[C@@H](O)[C@@H]2O)ccc1O [PINORESINOL-4'-O-[6'-O-(E)-FERULOYL]-BETA-D-GLUCOPYRANOSIDE] | 34.3%
180 µg/mL (≈ 193 µM) | COc1cc(/C=C/C(=O)OC[C@H]2O[C@@H](Oc3c(OC)cc([C@@H]4OC[C@@H]5[C@H]4CO[C@H]5c4cc(OC)c(O)c(OC)c4)cc3OC)[C@H](O)[C@@H](O)[C@@H]2OC(=O)/C=C/c2ccc(O)c(OC)c2)ccc1O [SYRINGARESINOL-4'-O-[4',6'-O-(E)-DIFERULOYL]-BETA-D-GLUCOPYRANOSIDE] | 56.1%
